Patent EP0584588A1, “Anti-ulcer composition containing imidazole derivative” (NIPPON CHEMIPHAR CO., LTD., priority 1992, dated 1994)
Where two headings read alike, the source gives them in different places.

Assays:
[1] = Stability in acidic conditions (Britten-Robinson buffer, HPLC); assay type: physicochemical
Method: The stability of the compound in acidic conditions was determined at 37 °C in Britten-Robinson buffer which had been previously adjusted to pH 3.0, 5.0 or 7.0. The compound was dissolved in this buffer by supersonic waves, and the filtered solution was monitored by high performance liquid chromatography (HPLC) (Tosoh TSK-gel ODS-120T 4.6-250mm, CH₃CN/10 mM phosphate buffer (pH 6.0), 1 ml/min., room temperature (25 °C), detector ultraviolet (UV) 240-250 nm). Half-lives (T1/2) were determined from linear regression of the concentration vs. time (h).

HCl-ethanol erosion = HCl-ethanol erosion model (cytoprotective action on gastrointestinal tract); assay type: in vivo, SD rats; details: Rattus norvegicus, 0.5 h; oral, 30 min. before HCl-ethanol mixture; total length of erosions; read-out: ED₅₀
Method: To a mixture of 2-[(2-Isobutylamino)benzylthio]imidazole (1 g) obtained in (i) above, chloroform (40 ml), and methanol (10 ml) was portionwise added under chilling with ice, m-chloroperbenzoic acid (equivalent molar amount). After completion of the reaction was confirmed using TLC, the reaction mixture was made alkaline by addition of saturated aqueous sodium hydrogen carbonate and extracted with chloroform. The chloroform portion was then treated successively with three portions of 10 ml of 0.1 N aqueous NaOH and one portion of 20 ml of 0.1 N aqueous NaOH to transfer the desired product into the aqueous portions. The obtained four aqueous portions were separately made ammonia-alkaline by addition of 20% aqueous […]. The precipitated crystals were collected, washed sufficiently with ether, and dried to give 0.6 g (yield: 56.5%) of the desired product as a white crystalline powder. […]
SD rats were fested for 24 hours. […] Length (mm) of each erosion was measured, and the total length (mm) of the erosions observed in one rat was calculated. […]

| SMILES | half-life ([1]; britten-robinson buffer, pH 3) | half-life ([1]; britten-robinson buffer, pH 5) | half-life ([1]; britten-robinson buffer, pH 7) | ED50 (HCl-ethanol erosion) | half-life ([1]; pH 3.0, 37°C, Britten-Robinson buffer, read-out: (T1/2) (converted)) | half-life ([1]; pH 5.0, 37°C, Britten-Robinson buffer, read-out: (T1/2) (converted)) | half-life ([1]; pH 7.0, 37°C, Britten-Robinson buffer, read-out: (T1/2) (converted)) |
| --- | --- | --- | --- | --- | --- | --- | --- |
| CC(C)CNc1ccccc1C[S+]([O-])c1ncc[nH]1 (stereo not shown) [Imidazole derivative A, 2-[(2-Isobutylamino)benzylsulfinyl]imidazole] | 1.8 min | 55.8 min | 3780 min | 3.6 mg/kg |  |  |  |
| COc1ccc2[nH]c([S+]([O-])Cc3ncc(C)c(OC)c3C)nc2c1 (stereo not shown) [Omeprazole, reference compound] |  |  |  |  | 3 min | 20.4 min | 1620 min |
